Data reported in patent US8324404B2, “3-thia-10-aza-phenanthrene derivatives” (Nycomed GmbH, priority 2004, dated 2012).

What follows are compounds tested against T1, PDE4B2 (Homo sapiens, UniProt Q07343) (assay: Inhibition of PDE4B2 activity, modified [3H]cAMP SPA (scintillation proximity assay) test). Settings: recombinant PDE4B2 (GB no. M97515) expressed in SF21 insect cells; 0.5 μM cAMP; 15 min at 37° C.; read-out: PDE4 Inhibition [measured as −logIC50 (mol/l)] (converted).
T1 construct: made in house; host or cells: SF21 insect cells (baculovirus, pCR-Bac vector; virus made in SF9 cells)
T1 sequence (Q07343 1-564 isoform Q07343-2): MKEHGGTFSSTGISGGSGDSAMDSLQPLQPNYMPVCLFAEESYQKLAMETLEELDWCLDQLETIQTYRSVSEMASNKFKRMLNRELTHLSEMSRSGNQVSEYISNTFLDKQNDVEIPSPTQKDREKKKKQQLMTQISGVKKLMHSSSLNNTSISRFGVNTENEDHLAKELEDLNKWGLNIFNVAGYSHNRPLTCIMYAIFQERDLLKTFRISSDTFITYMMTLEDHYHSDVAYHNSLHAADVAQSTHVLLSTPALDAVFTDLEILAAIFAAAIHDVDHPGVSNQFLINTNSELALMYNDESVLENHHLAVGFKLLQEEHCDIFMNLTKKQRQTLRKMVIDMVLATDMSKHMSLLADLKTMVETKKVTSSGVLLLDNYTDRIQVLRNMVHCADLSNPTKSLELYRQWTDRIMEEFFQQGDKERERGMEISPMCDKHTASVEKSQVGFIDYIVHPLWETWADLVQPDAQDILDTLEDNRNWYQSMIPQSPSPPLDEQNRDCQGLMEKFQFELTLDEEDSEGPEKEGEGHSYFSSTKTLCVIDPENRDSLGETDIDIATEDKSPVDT
Assay type: biochemical
Description: The PDE4B2 (GB no. M97515) was a gift of Prof. M. Conti (Stanford University, USA). It was amplified from the original plasmid (pCMV5) via PCR with primers Rb9 (5′-[…]-3′) and Rb10 (5′-[…]-3′) and cloned into the pCR-Bac vector (Invitrogen, Groningen, NL).
The recombinant baculovirus was prepared by means of homologous recombination in SF9 insect cells. The expression plasmids were cotransfected with Bac-N-Blue (Invitrogen, Groningen, NL) or Baculo-Gold DNA (Pharmingen, Hamburg) using a standard protocol (Pharmingen, Hamburg). Wt virus-free recombinant virus supernatants were selected using plaque assay methods. After that, high-titre virus supernatants were prepared by amplifying 3 times. PDE4B2 was expressed in SF21 cells by infecting 2×10^6 cells/ml with an MOI (multiplicity of infection) between 1 and 10 in serum-free SF900 medium (Life Technologies, Paisley, UK). The cells were cultured at 28° C. for 48-72 hours, after which they were pelleted for 5-10 min at 1000 g and 4° C.
The SF21 insect cells were resuspended, at a concentration of approx. 10^7 cells/ml, in ice-cold ([…]) homogenization buffer (20 mM Tris, pH 8.2, containing the following additions: 140 mM NaCl, 3.8 mM KCl, 1 mM EGTA, 1 mM MgCl2, 10 mM-mercaptoethanol, 2 mM benzamidine, 0.4 mM Pefablock, 10 μM leupeptin, 10 μM pepstatin A, 5 μM trypsin inhibitor) and disrupted by ultrasonication. The homogenate was then centrifuged for 10 min at 1000×g and the supernatant was stored at −80° C. until sub-sequent use (see below). The protein content was determined by the Bradford method (BioRad, Munich) using BSA as the standard.
PDE4B2 activity was inhibited by the said compounds in a modified SPA (scintillation proximity assay) test, supplied by Amersham Biosciences (see procedural instructions “phosphodiesterase [3H]cAMP SPA enzyme assay, code TRKO 7090”), carried out in 96-well microtitre plates (MTP's). The test volume is 100 μl and contains 20 mM Tris buffer (pH 7.4), 0.1 mg of BSA (bovine serum albumin)/ml, 5 mM Mg^2+, 0.5 μM cAMP (including about 50,000 cpm of [3H]cAMP), 1 μl of the respective substance dilution in DMSO and sufficient recombinant PDE (1000×g supernatant, see above) to ensure that 10-20% of the cAMP is converted under the said experimental conditions. […] After a preincubation of 5 min at 37° C., the reaction is started by adding the substrate (cAMP) and the assays are incubated for a further 15 min; after that, they are stopped by adding SPA beads (50 μl). […] After the beads have been sedimented (>30 min), the MTP's are analyzed in commercially available luminescence detection devices. The corresponding IC50 values of the compounds for the inhibition of PDE activities are determined from the concentration-effect curves by means of non-linear regression.

Row | Compound | IC50 [nM]
1 | CCOc1cc2c(cc1OC)C(c1ccc(C(=O)N(C(C)C)C(C)C)cc1)=N[C@@H]1CC[S+]([O-])C[C@H]21 (single isomer, unassigned) [Compound 2] | 145
2 | CCOc1cc2c(cc1OC)C(c1ccc(C(=O)N(C(C)C)C(C)C)cc1)=N[C@@H]1CC[S+]([O-])C[C@H]21 (single isomer, unassigned) [Compound 3] | 3.31
3 | CCOc1cc2c(cc1OC)C(c1ccc(C(=O)N(C(C)C)C(C)C)cc1)=N[C@@H]1CCSC[C@H]21 [Compound 1, 4-((4aR,10aR)-6-Ethoxy-7-methoxy-1,4,4a,10a-tetrahydro-2H-3-thia-10-aza-phenanthren-9-yl)-N,N-diisopropyl-benzamide] | 0.724
4 | CCOc1cc2c(cc1OC)C(c1ccc(C(=O)N(C(C)C)C(C)C)cc1)=[N+]([O-])[C@@H]1CCS(=O)(=O)C[C@H]21 [Compound 5, 4-((4aR,10aR)-6-Ethoxy-7-methoxy-3,3-dioxo-10-oxy-1,2,3,4,4a,10a-hexahydro-3l^6-thia-10-aza-phenanthren-9-yl)-N,N-diisopropyl-benzamide] | 20
